Data as given in US20240390513A1, “PHARMACEUTICAL COMPOSITION FOR TREATING INFLAMMATORY DISEASES” (INDUSTRY FOUNDATION OF CHONNAM NATIONAL UNIVERSITY, priority 2021, published 2024).

System: HK-2 cells
Test: Cellular uptake (fluorescence microscope, FACS, ICP-MS)
Assay type: cell-based, human
Details: 4 hours, non-ROS conditions
Experimental: For uptake studies, HK-2 cells (3×10^4 cells/well) were seeded onto Lab-Tek® Chamber Slides and cultured overnight. […] Untreated cells were used as a control. After incubation, the medium was aspirated, followed by performing DPBS wash and 4% paraformaldehyde (PFA) fixation. The cells were then counterstained with 4′,6-diamidino-2-phenylindole (DAPI). A fluorescence intensity of IR780 was analyzed by fluorescence microscope (Evos FL Auto 2, Thermo Fisher Scientific) to determine IR780 uptake by cells. To confirm the effect of ROS on intracellular distribution and release, ROS conditions were mimicked by treating the cells with 200 μM H2O2 for 2 hours or culturing the cells in a hypoxia chamber for 2 days before treatment. Cellular uptake was further quantified by flow cytometry. Briefly, 1×10^5 HK-2 cells/well were seeded in a 12-well plate and incubated overnight. The medium was aspirated, another sample was added and incubated for 4 hours. […] The cells were then re-suspended in FACS buffer containing 3% FBS, and fluorescence-activated cell sorting (FACS) was performed to determine the uptake capacity of each group. […] The cellular uptake of the final PTC-M nanocomposite was determined by ICP-MS analysis. […] Aqua regia (1 ml) was added to the final pellets for digestion, then the sample was diluted and analyzed for manganese content by ICP-MS. […]

IR780 iodide
cellular uptake (IR780 fluorescence, microscope): higher uptake rate regardless of nanomicelle loading
